How the values were obtained:
Lung [1] = experiment: Biodistribution in lung of BALB/cAnNCrlCrlj mouse at 0.5 umol/kg administered as [14C]labeled compound intranasally as single dose measured 0.25 hrs post dose by liquid scintillation counting; format: ADME, organism-based; conditions: in vivo, inhaled_or_intranasal
[2] = Biodistribution in trachea of BALB/cAnNCrlCrlj mouse at 0.5 umol/kg administered as [14C]labeled compound intranasally as single dose measured 0.25 hrs post dose by liquid scintillation counting; format: ADME, organism-based; conditions: in vivo, inhaled_or_intranasal
[3] = Biodistribution in respiratory tract of BALB/cAnNCrlCrlj mouse at 0.5 umol/kg administered as [14C]labeled compound intranasally as single dose measured 6 hrs post dose by whole body autoradiography; format: ADME, organism-based; conditions: in vivo, inhaled_or_intranasal
[4] = Biodistribution in trachea of BALB/cAnNCrlCrlj mouse at 0.5 umol/kg administered as [14C]labeled compound intranasally as single dose measured 24 hrs post dose by liquid scintillation counting; format: ADME, organism-based; conditions: in vivo, inhaled_or_intranasal
[5] = Biodistribution in respiratory tract of BALB/cAnNCrlCrlj mouse at 0.5 umol/kg administered as [14C]labeled compound intranasally as single dose measured 72 hrs post dose by whole body autoradiography; format: ADME, organism-based; conditions: in vivo, inhaled_or_intranasal
Lung [6] = experiment: Biodistribution in lung of BALB/cAnNCrlCrlj mouse at 0.5 umol/kg administered as [14C]labeled compound intranasally as single dose measured 24 hrs post dose by liquid scintillation counting; format: ADME, organism-based; conditions: in vivo, inhaled_or_intranasal
[7] = Prodrug conversion in BALB/cAnNCrlCrlj mouse trachea assessed as compound conversion to R-125489 at 10 uM relative to untreated control; format: ADME, tissue-based
[8] = Prodrug conversion in BALB/cAnNCrlCrlj mouse lung S9 fraction assessed as compound conversion to R-125489 at 10 uM in presence of esterase inhibitor PCMB administered 10 mins before compound addition relative to untreated control; format: ADME; conditions: s9, 10 min
[9] = Prodrug conversion in BALB/cAnNCrlCrlj mouse lung S9 fraction assessed as compound conversion to R-125489 at 10 uM in presence of esterase inhibitor eserine administered 10 mins before compound addition relative to untreated control; format: ADME; conditions: s9, 10 min
[10] = Prodrug conversion in BALB/cAnNCrlCrlj mouse lung S9 fraction assessed as compound conversion to R-125489 at 10 uM in presence of esterase inhibitor DFP administered 10 mins before compound addition relative to untreated control; format: ADME; conditions: s9, 10 min
[11] = Prodrug conversion in BALB/cAnNCrlCrlj mouse lung S9 fraction assessed as compound conversion to R-125489 at 10 uM relative to untreated control; format: ADME; conditions: s9, 10 µM
[12] = Prodrug conversion in BALB/cAnNCrlCrlj mouse lung S9 fraction assessed as compound conversion to R-125489 at 10 uM in presence of esterase inhibitor BNPP administered 10 mins before compound addition relative to untreated control; format: ADME; conditions: s9, 10 min
[13] = Prodrug conversion in BALB/cAnNCrlCrlj mouse trachea assessed as compound conversion to R-125489 at 10 uM in presence of esterase inhibitor DFP administered 10 mins before compound addition relative to untreated control; format: ADME, tissue-based
[14] = Prodrug conversion in BALB/cAnNCrlCrlj mouse lung S9 fraction assessed as compound conversion to R-125489 at 10 uM in presence of esterase inhibitor EDTA administered 10 mins before compound addition relative to untreated control; format: ADME; conditions: s9, 10 min
[15] = Prodrug conversion in BALB/cAnNCrlCrlj mouse lung S9 fraction assessed as compound conversion to R-125489 at 10 uM in presence of esterase inhibitor DTNB administered 10 mins before compound addition relative to untreated control; format: ADME; conditions: s9, 10 min
Lung [16] = experiment: Half life in BALB/cAnNCrlCrlj mouse lung at 0.5 umol/kg administered as [14C]labeled compound intranasally as single dose; format: ADME, organism-based; conditions: in vivo, inhaled_or_intranasal
Influenza A virus = experiment: Antiviral activity against Influenza A virus (A/Puerto Rico/8/1934(H1N1)); format: functional, organism-based
Lung [17] = experiment: Tmax in BALB/cAnNCrlCrlj mouse lung at 0.5 umol/kg administered as [14C]labeled compound intranasally as single dose; format: ADME, organism-based; conditions: in vivo, inhaled_or_intranasal
Lung [18] = experiment: Cmax in BALB/cAnNCrlCrlj mouse lung assessed as compound concentration per gram of tissue at 0.5 umol/kg administered as [14C]labeled compound intranasally as single dose; format: ADME, organism-based; design: dose 0.5 umol/kg, route nasal; conditions: in vivo, inhaled_or_intranasal
Lung [19] = experiment: Drug level in BALB/cAnNCrlCrlj mouse lung at 0.5 umol/kg administered as [14C]labeled compound intranasally as single dose measured 120 hrs post dose; format: ADME, tissue-based; conditions: in vivo, inhaled_or_intranasal

Question: What does the source list for `CO[C@@H]([C@@H]1OC(C(=O)O)=C[C@H](N[14C](=N)N)[C@H]1NC(C)=O)[C@H](O)CO`?
Answer: Drug uptake (Lung [1]): 30 nmolequiv/g; Drug uptake [2]: 4 nmolequiv/g

Question: For `CCCCCCCC(=O)OC[C@@H](O)[C@@H](OC)[C@@H]1OC(C(=O)O)=C[C@H](N[14C](=N)N)[C@H]1NC(C)=O`, which Drug uptake [3] is on record?
Answer: The Drug uptake was “Active”.

Question: What about the Drug uptake (Lung [1]) of the same compound?
Answer: The Drug uptake was 30 nmolequiv/g.

Question: And the Drug uptake [2]?
Answer: The Drug uptake was 4 nmolequiv/g.

Question: What about the Drug uptake [4] of the same compound?
Answer: The Drug uptake was 0.99 nmolequiv/g.

Question: What about the Drug uptake [5] of the same compound?
Answer: Its Drug uptake is “Active”.

Question: And the Drug uptake (Lung [6])?
Answer: Its Drug uptake is 5.57 nmolequiv/g.

Question: With `CCCCCCCC(=O)OC[C@@H](O)[C@@H](OC)[C@@H]1OC(C(=O)O)=C[C@H](NC(=N)N)[C@H]1NC(C)=O` [LANINAMIVIR OCTANOATE] as the compound, how does the Activity [7] read?
Answer: The Activity was 100%.

Question: And the Activity [8]?
Answer: The Activity was 106.5%.

Question: And the Activity [9]?
Answer: Its Activity is 31.9%.

Question: And the Activity [10]?
Answer: The Activity was 13.6%.

Question: What about the Activity [11] of the same compound?
Answer: The Activity was 100%.

Question: What about the Activity [12] of the same compound?
Answer: The Activity was 21%.

Question: And the Activity [13]?
Answer: The Activity was 44.1%.

Question: What about the Activity [14] of the same compound?
Answer: The Activity was 130.7%.

Question: What about the Activity [15] of the same compound?
Answer: The Activity was 42%.

Question: What about the t1/2 (Lung [16]) of the same compound?
Answer: The t1/2 was 0.833 h.

Question: For `CO[C@@H]([C@@H]1OC(C(=O)O)=C[C@H](NC(=N)N)[C@H]1NC(C)=O)[C@H](O)CO` [LANINAMIVIR], which IC50 (Influenza A virus) is on record?
Answer: The IC50 was 5.97 nM.

Question: What about the Tmax (Lung [17]) of the same compound?
Answer: Its Tmax is 3 h.

Question: And the Cmax (Lung [18])?
Answer: Its Cmax is 6.41 nmol/g.

Question: What about the Drug uptake (Lung [19]) of the same compound?
Answer: The Drug uptake was 0.915 nmol/g.

Question: What about the t1/2 (Lung [16]) of the same compound?
Answer: Its t1/2 is 41.4 h.

Question: For `CC(=O)N[C@H]1[C@H]([C@H](O)[C@H](O)CO)OC(C(=O)O)=C[C@@H]1N[14C](=N)N` [[14C]-ZANAMIVIR], which Drug uptake (Lung [1]) is on record?
Answer: Its Drug uptake is 30 nmolequiv/g.

Question: And the Drug uptake [2]?
Answer: Its Drug uptake is 4 nmolequiv/g.

— ChEMBL document CHEMBL1671670, “CS-8958, a prodrug of the novel neuraminidase inhibitor R-125489, demonstrates a favorable long-retention profile in the mouse respiratory tract” (Antimicrob Agents Chemother, 2009)
